According to the supplement of paper PMC10290057:

Key:
[1] = system: HCT116; experiment: AC50 cell viability (CellTiter-Glo); higher = less potent; settings: 48 h
[2] = system: HCT116; experiment: efficacy (fitted maximal change in viability relative to DMSO control); higher = less cytotoxic (negative = loss of viability); settings: 48 h
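Wherever AC50 cell viability (CellTiter-Glo) is given: HCT116 colorectal carcinoma cells screened at five concentrations per compound, luminescent viability scaled between DMSO wells and empty wells on each plate, curves fitted per compound.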
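Wherever efficacy (fitted maximal change in viability relative to DMSO control) is given: Luminescence-based viability readout, five doses per compound, normalized against on-plate DMSO and empty-well controls, followed by dose-response curve fitting for every drug.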

Compound | AC50 cell viability [1] [µM] | efficacy [2] [%]
CC(C)(C)Cn1c(N)nc2ccc(-c3[nH]c(C(C)(C)C)nc3-c3ccc(F)cc3)nc21 | 23.5 | -83.7
Cc1[nH]c(/C=C2\C(=O)Nc3ccc(F)cc32)c(C)c1C(=O)NC[C@H](O)CN1CCOCC1 | 2.63 | -73
Cc1ccc([S+](=O)([O-])Cc2nc(-c3ccc(C(=O)NCc4cccnc4)cc3)oc2C)cc1 | 0.0372 | -90.9
Cc1cccc(-c2[nH]c(C(C)(C)C)nc2-c2ccc3nccnc3c2)n1 | 20.9 | -85.8
CCc1cncnc1N1CCN(Cc2nc3cc(C(F)(F)F)ccc3[nH]2)CC1 | 14.8 | -42.6
CCc1cnn2c(NCc3ccc[n+]([O-])c3)cc(N3CCCC[C@H]3CCO)nc12 | 0.0148 | -67.1
CCN(CC)CCCC(C)Nc1nc(C)cc(Nc2ccc3nc(C)cc(N)c3c2)n1 (configuration not stated) | 20.9 | -54.4
CCN(CC)CCCCNc1ncc2cc(-c3cc(OC)cc(OC)c3)c(NC(=O)NC(C)(C)C)nc2n1 | 18.6 | -117
CCNC(=O)C#Cc1ccc2c(c1)NC(=O)/C2=C(\Nc1ccc(CN(C)C)cc1)c1ccccc1 | 0.257 | -104
CCOC(=O)N1CCN(/[N+]([O-])=N/Oc2ccc([N+](=O)[O-])cc2[N+](=O)[O-])CC1 | 18.6 | -71.8
CCn1c(-c2nonc2N)nc2cnc(Oc3cccc(NC(=O)c4ccc(OCCN5CCOCC5)cc4)c3)cc21 | 10.5 | -79.2
CN1CCC(CC1)COC2=CN=C(N=C2)C3=CC(=CC=C3)CN4/N=C(\C=C/C4=O)C5=CC(=CC=C5)C#N | 7.42 | -30.6
COc1cc2ncn(-c3cc(OCc4ccccc4C(F)(F)F)c(C(N)=O)s3)c2cc1OC | 0.934 | -78.4
COc1ccc(N(C(=O)Oc2c(C)cccc2C)c2ccnc(Nc3ccc(N4CCN(C)CC4)cc3)n2)c(OC)c1 | 0.661 | -41
COc1ccc2c(c1)[C@]1(C[C@H]1c1ccc3c(/C=C/c4ccc(CN5C[C@@H](C)O[C@@H](C)C5)cc4)n[nH]c3c1)C(=O)N2 | 13.2 | -83.6
COC1=CC=CC(=C1N)\C2=C\C(=O)C3=C(O2)C=CC=C3 | 16.6 | -52.9
CO[C@@H](C)Cn1c(=O)n(C)c2cnc3ccc(-c4cncc(C(C)(C)O)c4)cc3c21 | 1.05 | -82.3
Cn1nccc1Nc1nccc(-c2cc3c(s2)C(C)(C)N(CCN2CCOCC2)C3=O)n1 | 0.525 | -57.4
Clc1cc(Cl)cc(CNc2ncncc2-c2ccc3c(c2)OCO3)c1 | 13.2 | -78.4
NC(=O)c1ccc2nc(-c3ccc(C4(N)CCC4)cc3)c(-c3ccccc3)n2n1 | 20.9 | -103
C=CC(=O)N1CCC[C@@H](n2nc(-c3ccc(Oc4ccccc4)cc3)c3c(N)ncnc32)C1 | 16.6 | -90.8
NC(=O)c1cnc(N[C@@H]2CCCC[C@@H]2N)nc1Nc1cccc(-n2nccn2)c1 | 10.5 | -90.7
O=C(Nc1ccc2[nH]nc(-c3ccncc3)c2c1)[C@@H]1CCN(CC(=O)N2CCN(c3ccc(-c4ncccn4)cc3)CC2)C1 | 0.295 | -64.3
O=C(NOCC(O)CO)c1cc(Br)c(F)c(F)c1Nc1ccc(I)cc1F (configuration not stated) | 0.934 | -69.5
O=[N+]([O-])c1ccc(Nc2ccccc2-c2ccccc2)c2nonc12 | 16.6 | -90.7
O=C1c2ccccc2-c2n[nH]c3cccc1c23 | 13.2 | -63.8
